These results are taken from ChEMBL document CHEMBL1151067, “Stereoselectivity in the hydrolysis of synthetic esters by cultured cancer cells and normal tissue extracts of rat” (1994).

Assay [1] has as its system Anr4. As to the kind of experiment: Stereoselectivity in enzymic hydrolysis by rat cancer Anr4 cells. The format is functional.
The subject of assay [2] is COLO 320. In words: Stereoselectivity in enzymic hydrolysis by human cancer COLO 320 (colon adenocarcinoma) cells. In kind it is functional.
The species entered for assay [3] is Rattus norvegicus. As to the kind of experiment: Stereoselectivity in enzymic hydrolysis by normal rat muscle extracts. In kind it is functional, Muscle tissue.
Assay [4] has as its system NRK-49F. As to the kind of experiment: Stereoselectivity in enzymic hydrolysis by rat cancer NRK49F cells. The format is functional.
The species named for assay [5] is Rattus norvegicus. As to the kind of experiment: Stereoselectivity in enzymic hydrolysis by normal rat intestine extracts. The format is functional.
Assay [6] concerns ARIP cell line. As to the kind of experiment: Stereoselectivity in enzymic hydrolysis by rat cancer ARIP cells. In kind it is functional.
Assay [7] has as its system CCRF S-180. In words: Stereoselectivity in enzymic hydrolysis by mouse sarcoma S180 cells. In kind it is functional.
For assay [8], the species on record is Rattus norvegicus. As to the kind of experiment: Stereoselectivity in enzymic hydrolysis by normal rat kidney extracts. In kind it is functional.
The species named for assay [9] is Rattus norvegicus. In words: Stereoselectivity in enzymic hydrolysis by normal rat pancreas extracts. The format is functional.
The subject of assay [10] is U-937. As to the kind of experiment: Stereoselectivity in enzymic hydrolysis by human cancer U937 (histiocytic lymphoma) cells. The format is functional.
The species named for assay [11] is Rattus norvegicus. As to the kind of experiment: Stereoselectivity in enzymic hydrolysis by normal rat liver extracts. The format is functional.
Assay [12] deals with XC. In words: Stereoselectivity in enzymic hydrolysis by rat cancer XC cells. The format is functional.
The subject of assay [13] is IA-XsSBR cell line. In words: Stereoselectivity in enzymic hydrolysis by rat cancer IA-XsSBR cells. The format is functional.
The subject of assay [14] is MIA PaCa-2. In words: Stereoselectivity in enzymic hydrolysis by human cancer MIA PaCa-2 (pancreatic carcinoma) cells. In kind it is functional.
Assay [15] has as its system CCRF S-180. In words: Stereoselectivity in enzymic hydrolysis of compound by mouse sarcoma S180 cells. In kind it is functional.

For `CCOC(=O)C(NC=O)c1ccccc1` (stereo not drawn), the Conversion rate amounted to 1.2% in assay [1]; 3.8% in [2]; 5.9% in assay [3]; 2.2% in assay [4]; 1.4% in assay [5]; 1.6% in assay [6]. For the same compound, the Conversion rate in assay [7] is on record as 3.6%; in [8], 7.6%; in assay [9] it was 14.3%; in [10], 3.5%; in assay [11] it was 2.7%; in assay [12] it was 1.2%. The Conversion rate in [13] is reported as 1.3%.
In the case of `CCOC(=O)C(OC)c1ccccc1` (stereo not drawn), the Conversion rate in assay [7] worked out at 4.3%.
On to `CCCCCCCCOC(=O)C(C)c1ccccc1` (stereo not drawn), for which the Conversion rate in assay [7] is 11%.
Turning to `CCOC(=O)C(Cc1ccccc1)NC(C)=O` (stereo not drawn), the Conversion rate in assay [14] came to 42%; in [1] it was 30.6%; in [2], 13.8%; in [3], 31.9%; in assay [4] it was 35.1%; in assay [5] it was 37.3%. Also, the Conversion rate in assay [6] was 37.2%; in assay [7], 12.9%; in [8], 23.2%; in assay [9], 43.8%; in assay [10] it was 17.5%; in assay [11] it was 48.2%. The Conversion rate was 42% in assay [12] and 30.5% in assay [13].
In [7], `CCOC(=O)C(O)c1ccccc1` (stereo not drawn) yielded a Conversion rate of 21.2%.
As to `CCOC(=O)C(C)c1ccccc1` (stereo not drawn), the Conversion rate in [14] is listed as 11.9%; in assay [1] it was 0.5%; in [2] it was 1.2%; in assay [3], 1%; in assay [4] it was 8.2%; in assay [5], 5%. In addition, the Conversion rate in assay [6] was determined as 6.9%; in [8], 11.2%; in assay [9], 1.2%; in [10], 1.4%; in assay [11] it was 11.5%; in [12] it was 0.6%. Further, the Conversion rate was 18.1% in assay [15] and 1.4% in [13].
With `CCOC(=O)C(C)Oc1ccccc1` (stereo not drawn), the Conversion rate in assay [14] is listed as 35.9%; in [1], 14.2%; in assay [3], 18%; in assay [4] it was 4.5%; in assay [5], 5%; in assay [6], 5.7%. Besides, the Conversion rate came to 38.9% in assay [7]; 53% in assay [8]; 33.3% in assay [9]; 52.5% in assay [11]; 23% in [12]; 12.2% in assay [13].
In turn, `CCOC(=O)C(NC(C)=O)c1ccccc1` (stereo not drawn) registered a Conversion rate in assay [7] of 4.3%.
As for `CC(C(=O)OCCC1CCCCC1)c1ccccc1` (stereo not drawn), the Conversion rate in [7] is on record as 6.1%.
